From patent publication US5491151A, “Antitumor treatment method” (Kabushiki Kaisha Hayashibara Seibutsu Kagaku Kenkyujo, priority 1989, dated 1996) come the findings set out here.

One data set deals with ddy mice. In words: Acute toxicity (LD50). Type of data set: in vivo. The note with it: 7 days. The method, then: Either of Compounds No.1-8 in Table I was dissolved or suspended in saline containing 5% gum arabic, and a group of ddy mice, about 10-20 g each, received an intraperitoneal or oral administration of the resultant mixture occasionally through a stomach tube, followed by monitoring and counting dead mice for an additional 7 days to determine respective LD50 value in accordance with the Van der Waerden's method.

Another data set relates to macrophage. As to the kind of experiment: Activation of macrophage by cyanine dye (adherent ascites cells of treated mice cultured with Meth A ascitic tumor cells, 3H-thymidine incorporation). Format: cell-based, BALB/c mice. The following applies: 50 ng/0.2 ml/animal intraperitoneal to mice, cells collected two days later. The method, then:
Two days after the administration, the ascites of the mice were extracted, and the cells which adhered onto plastic Petri dish were collected.
Control group was intraperitoneally administered with 0.2 ml saline.
Thereafter, the incorporation of ^3 H-thymidine in the tumor cell was determined by conventional method, and the growth inhibitory rate for tumor (%) was calculated with the following equation.
For orientation: Dividing cells build labelled thymidine or BrdU into new DNA.

SMILES strings stand for the structures.

On to `CCN1C=CC(=CC=C(C=Cc2cc[n+](CC)c3ccccc23)c2cc[n+](CC)c3ccccc23)c2ccccc21` [compound 5], for which the LD50 in the data set with ddy mice (intraperitoneal administration, 10080 min) is given as 28 mg/kg body weight; in the data set on ddy mice (oral administration), at least 4.0 g/kg body weight. In the data set on macrophage, the “Growth inhibitory rate (%)” value is given as 27.5%.
